# Laboratory results taken from patent US9936724B2, “Sweetener compositions” (Givaudan, S.A., priority 2014, dated 2018).
# Peptide text beside a SMILES is read from it.
# How the values were obtained:
# [1] = Solubility in water at room temperature; format: physicochemical; details: for solubility: in water at room temperature; for solubility in water, comparison in words: compared with other dihydrochalcones / with 3-phenyl-1-(2,4,6-trimethoxyphenyl)propan-1-one
# [2] = Masking of off-notes of high-intensity sweeteners (comparison of dihydrochalcones); details: used at soluble concentrations
# [3] = relative to sucrose; cited from earlier work
Compound,solubility [1],masking properties / masking effect [2],"solubility in water, comparison in words [1]",times sweeter than sucrose [3]
"COc1ccc(CCC(=O)c2c(O)cc(OC)cc2OC)cc1 [1-(2-hydroxy-4,6-dimethoxyphenyl)-3-(4-methoxyphenyl)propan-1-one]",below 5 ppm,significantly lower masking effect,–,–
"COc1cc(OC)c(C(=O)CCc2ccccc2)c(OC)c1 [3-phenyl-1-(2,4,6-trimethoxy-phenyl)propan-1-one]",greater than 30 ppm,particularly good masking properties,much higher solubility in water than other dihydrochalcones,–
COC(=O)[C@H](Cc1ccccc1)NC(=O)[C@@H](N)CC(=O)O [Aspartame] (H-Asp-Phe-OMe),–,–,–,160-200 times
"O=C(CCc1ccc(O)cc1)c1c(O)cc(O)cc1O [phloretin, 3-(4-hydroxyphenyl)-1-(2,4,6-trihydroxyphenyl)propan-1-one]",–,did not provide masking properties,soluble to a similar extent,–
O=S(=O)([O-])NC1CCCCC1.[Na+] [sodium cyclamate],–,–,–,about 30 times
OC[C@H]1O[C@H](O[C@]2(CCl)O[C@H](CCl)[C@@H](O)[C@@H]2O)[C@H](O)[C@@H](O)[C@H]1Cl [sucralose],–,–,–,about 600 times
thaumatin,–,–,–,about 2 000 times
